From patent US20240239792A1, “MODULATORS OF BCL-2 OR BCL-2/BCL-XL AND USES THEREOF” (APPICINE THERAPEUTICS (HK) LIMITED, priority 2021, published 2024)

Legend:
BCL-2 = molecular target: T1, BCL-2 (Homo sapiens, UniProt P10415); assay: HTRF BCL-2/BAK assay (Cisbio); assay type: binding; conditions: recombinant human Tag1-BCL-2 2 nM, Tag2-BAK 10 nM
T1 construct: purchased Cisbio 63ADK000CB01PEG
Experimental: (§1) Then the pre-mixed anti-Tag1-Eu^3+ and anti-tag2-XL665 were added to the plate and further incubated at room temperature for another 2 hours. The signals ([…]) were read on Envision 2104 instrument. The IC50 for each compound was derived from fitting the signal of 665/615 nM to the increasing compound concentration.
(§2) Using the above assays, the following compounds were tested.

DOHH2 cells = assay: CellTiter-Glo cell proliferation assay, DOHH2 cells; assay type: cell-based; conditions: Homo sapiens, DOHH-2, 72 hours
Outline: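 DOHH2 cells seeded in DMEM + 10% FBS, exposed to serially diluted compound for 72 h at 37 °C, 5% CO2. Viability read by CellTiter-Glo luminescence; GI50 calculated.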

BCL-XL = molecular target: T2, BCL-XL (Homo sapiens, UniProt Q07817); assay: HTRF BCL-XL/BAK assay (Cisbio); assay type: binding; conditions: recombinant human Tag1-BCL-XL 2 nM, Tag2-BAK 5 nM
T2 construct: purchased Cisbio 63ADK000CB04PEG
T2 sequence (Q07817 whole entry): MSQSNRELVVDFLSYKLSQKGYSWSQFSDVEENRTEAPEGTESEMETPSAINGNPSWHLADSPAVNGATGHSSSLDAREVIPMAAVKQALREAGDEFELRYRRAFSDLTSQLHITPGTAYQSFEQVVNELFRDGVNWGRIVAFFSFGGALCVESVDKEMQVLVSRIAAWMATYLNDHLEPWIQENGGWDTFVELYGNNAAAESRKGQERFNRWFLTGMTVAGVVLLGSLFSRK
Experimental: as §1, §2

T1 sequence (P10415 whole entry): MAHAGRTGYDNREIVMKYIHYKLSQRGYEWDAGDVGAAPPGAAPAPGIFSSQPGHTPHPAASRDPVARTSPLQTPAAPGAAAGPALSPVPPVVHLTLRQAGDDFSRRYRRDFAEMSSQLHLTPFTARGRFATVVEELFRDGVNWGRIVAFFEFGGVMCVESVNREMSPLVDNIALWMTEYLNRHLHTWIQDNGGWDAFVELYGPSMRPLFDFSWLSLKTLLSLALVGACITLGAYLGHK

SMILES	IC50 (BCL-2) [nM]	GI50 (DOHH2 cells) [nM]	IC50 (BCL-XL) [nM]
O=C(NS(=O)(=O)c1ccc(NCCN2CCC3(CC2)COC3)c([N+](=O)[O-])c1)c1ccc(N2CCN([C@@H]3CCCCc4c(Br)cc(F)cc43)CC2)cc1Oc1cnc2[nH]ccc2c1 [Compound 80, (R)-2-((1H-pyrrolo[2,3-b]pyridin-5-yl)oxy)-N-((4-((2-(2-oxa-7-azaspiro[3.5]nonan-7-yl)ethyl)amino)-3-nitrophenyl)sulfonyl)-4-(4-(1-bromo-3-fluoro-6,7,8,9-tetrahydro-5H-benzo[7]annulen-5-yl)piperazin-1-yl)benzamide]	< 20	500 to 5000	20 to 200
O=C(NS(=O)(=O)c1ccc(NCC2CCN(C3COC3)CC2)c([N+](=O)[O-])c1)c1ccc(N2CCN([C@@H]3CCCCc4c(Cl)cccc43)CC2)cc1Oc1cnc2[nH]ccc2c1 [Compound 83, (R)-2-((1H-pyrrolo[2,3-b]pyridin-5-yl)oxy)-4-(4-(1-chloro-6,7,8,9-tetrahydro-5H-benzo[7]annulen-5-yl)piperazin-1-yl)-N-((3-nitro-4-(((1-(oxetan-3-yl)piperidin-4-yl)methyl)amino)phenyl)sulfonyl)benzamide]	< 20	< 50	< 20
O=C(NS(=O)(=O)c1ccc(NCCN2CCN(C3COC3)CC2)c([N+](=O)[O-])c1)c1ccc(N2CCN([C@@H]3CCCCc4c(Cl)cccc43)CC2)cc1Oc1cnc2[nH]ccc2c1 [Compound 84, (R)-2-((1H-pyrrolo[2,3-b]pyridin-5-yl)oxy)-4-(4-(1-chloro-6,7,8,9-tetrahydro-5H-benzo[7]annulen-5-yl)piperazin-1-yl)-N-((3-nitro-4-((2-(4-(oxetan-3-yl)piperazin-1-yl)ethyl)amino)phenyl)sulfonyl)benzamide]	< 20	< 50	20 to 200
O=C(NS(=O)(=O)c1ccc(NCC2(O)CCN(C3COC3)CC2)c([N+](=O)[O-])c1)c1ccc(N2CCN([C@@H]3CCCCc4c(Cl)cccc43)CC2)cc1Oc1cnc2[nH]ccc2c1 [Compound 85, (R)-2-((1H-pyrrolo[2,3-b]pyridin-5-yl)oxy)-4-(4-(1-chloro-6,7,8,9-tetrahydro-5H-benzo[7]annulen-5-yl)piperazin-1-yl)-N-((4-(((4-hydroxy-1-(oxetan-3-yl)piperidin-4-yl)methyl)amino)-3-nitrophenyl)sulfonyl)benzamide]	< 20	< 50	< 20
CN1CCC(CNc2ccc(S(=O)(=O)NC(=O)c3ccc(N4CCN([C@@H]5CCCCc6c(Cl)cc(F)cc65)CC4)cc3Oc3cnc4[nH]ccc4c3)cc2[N+](=O)[O-])CC1 [Compound 86, (R)-2-((1H-pyrrolo[2,3-b]pyridin-5-yl)oxy)-4-(4-(1-chloro-3-fluoro-6,7,8,9-tetrahydro-5H-benzo[7]annulen-5-yl)piperazin-1-yl)-N-((4-(((1-methylpiperidin-4-yl)methyl)amino)-3-nitrophenyl)sulfonyl)benzamide]	< 20	< 50	< 20
O=C(NS(=O)(=O)c1ccc(NCC2CCOCC2)c([N+](=O)[O-])c1)c1ccc(N2CCN([C@@H]3CCCCc4c(Cl)cc(F)cc43)CC2)cc1Oc1cnc2[nH]ccc2c1 [Compound 87, (R)-2-((1H-pyrrolo[2,3-b]pyridin-5-yl)oxy)-4-(4-(1-chloro-3-fluoro-6,7,8,9-tetrahydro-5H-benzo[7]annulen-5-yl)piperazin-1-yl)-N-((3-nitro-4-(((tetrahydro-2H-pyran-4-yl)methyl)amino)phenyl)sulfonyl)benzamide]	< 20	< 50	20 to 200
O=C(NS(=O)(=O)c1ccc(NCC2(O)CCN(C3COC3)CC2)c([N+](=O)[O-])c1)c1ccc(N2CCN([C@@H]3CCCCc4c(Cl)cc(F)cc43)CC2)cc1Oc1cnc2[nH]ccc2c1 [Compound 88, (R)-2-((1H-pyrrolo[2,3-b]pyridin-5-yl)oxy)-4-(4-(1-chloro-3-fluoro-6,7,8,9-tetrahydro-5H-benzo[7]annulen-5-yl)piperazin-1-yl)-N-((4-(((4-hydroxy-1-(oxetan-3-yl)piperidin-4-yl)methyl)amino)-3-nitrophenyl)sulfonyl)benzamide]	< 20	< 50	< 20
O=C(NS(=O)(=O)c1ccc(NCC2CC3(CCOCC3)C2)c([N+](=O)[O-])c1)c1ccc(N2CCN([C@@H]3CCCCc4c(Cl)cccc43)CC2)cc1Oc1cnc2[nH]ccc2c1 [Compound 99, (R)-2-((1H-pyrrolo[2,3-b]pyridin-5-yl)oxy)-N-((4-(((7-oxaspiro[3.5]nonan-2-yl)methyl)amino)-3-nitrophenyl)sulfonyl)-4-(4-(1-chloro-6,7,8,9-tetrahydro-5H-benzo[7]annulen-5-yl)piperazin-1-yl)benzamide]	< 20	< 50	20 to 200
CC1(C)COCCC1CNc1ccc(S(=O)(=O)NC(=O)c2ccc(N3CCN([C@@H]4CCCCc5c(Cl)cccc54)CC3)cc2Oc2cnc3[nH]ccc3c2)cc1[N+](=O)[O-] (stereo partly drawn) [Compound 101, 2-((1H-pyrrolo[2,3-b]pyridin-5-yl)oxy)-4-(4-((R)-1-chloro-6,7,8,9-tetrahydro-5H-benzo[7]annulen-5-yl)piperazin-1-yl)-N-((4-(((3,3-dimethyltetrahydro-2H-pyran-4-yl)methyl)amino)-3-nitrophenyl)sulfonyl)benzamide]	< 20	< 50	20 to 200
CC1(C)CC(CNc2ccc(S(=O)(=O)NC(=O)c3ccc(N4CCN([C@@H]5CCCCc6c(Cl)cccc65)CC4)cc3Oc3cnc4[nH]ccc4c3)cc2[N+](=O)[O-])CCO1 (stereo partly drawn) [Compound 102, 2-((1H-pyrrolo[2,3-b]pyridin-5-yl)oxy)-4-(4-((R)-1-chloro-6,7,8,9-tetrahydro-5H-benzo[7]annulen-5-yl)piperazin-1-yl)-N-((4-(((2,2-dimethyltetrahydro-2H-pyran-4-yl)methyl)amino)-3-nitrophenyl)sulfonyl)benzamide]	< 20	< 50	20 to 200
CC(C)(C)OC(=O)NCCN1CCC2(CC1)CC(CNc1ccc(S(=O)(=O)NC(=O)c3ccc(N4CCN([C@@H]5CCCCc6c(Cl)cccc65)CC4)cc3Oc3cnc4[nH]ccc4c3)cc1[N+](=O)[O-])C2 [Compound 109, tert-butyl (R)-(2-(2-(((4-(N-(2-((1H-pyrrolo[2,3-b]pyridin-5-yl)oxy)-4-(4-(1-chloro-6,7,8,9-tetrahydro-5H-benzo[7]annulen-5-yl)piperazin-1-yl)benzoyl)sulfamoyl)-2-nitrophenyl)amino)methyl)-7-azaspiro[3.5]nonan-7-yl)ethyl)carbamate]	< 20	< 50	20 to 200
NCCN1CCC2(CC1)CC(CNc1ccc(S(=O)(=O)NC(=O)c3ccc(N4CCN([C@@H]5CCCCc6c(Cl)cccc65)CC4)cc3Oc3cnc4[nH]ccc4c3)cc1[N+](=O)[O-])C2 [Compound 110, (R)-2-((1H-pyrrolo[2,3-b]pyridin-5-yl)oxy)-N-((4-(((7-(2-aminoethyl)-7-azaspiro[3.5]nonan-2-yl)methyl)amino)-3-nitrophenyl)sulfonyl)-4-(4-(1-chloro-6,7,8,9-tetrahydro-5H-benzo[7]annulen-5-yl)piperazin-1-yl)benzamide]	< 20	< 50	< 20
